Assays:
Assay in all cases: relative viability (nuclei count vs DMSO), 5 days (fraction); higher = more cells survive
[1] = compound: C1/C(=C\C2=CC=CS2)/C(=O)/C(=C/C3=CC=CS3)/C1 + Cc1cc(Nc2cc(N3CCN(C)CC3)nc(Sc3ccc(NC(=O)C4CC4)cc3)n2)n[nH]1 [Tozasertib] (partner 0.1 µM)
Method in brief: (§1)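 Relative viability is defined as nuclei in treated wells over nuclei in vehicle wells. Duplicate plates were run and medians reported. Lung cancer cell lines in 1536-well plates were dosed by pin tool one day after seeding, with one drug or with a fixed anchor-drug dose plus five library-drug doses (not always all listed) in √10 steps, and nuclei were counted after 5 days.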

[2] = compound: C1/C(=C\C2=CC=CS2)/C(=O)/C(=C/C3=CC=CS3)/C1 + O=C(c1cc(Cc2n[nH]c(=O)c3ccccc23)ccc1F)N1CCN(C(=O)C2CC2)CC1 [Olaparib] (partner 8 µM)
Method in brief: as §1

TPCA-1 + Linsitinib = compound: C1=CC(=CC=C1C2=CC(=C(S2)NC(=O)N)C(=O)N)F [TPCA-1] + C[C@]1(O)C[C@@H](c2nc(-c3ccc4ccc(-c5ccccc5)nc4c3)c3c(N)nccn32)C1 [Linsitinib] (partner 1 µM)
Method in brief: as §1

TPCA-1 + Phenformin = compound: C1=CC(=CC=C1C2=CC(=C(S2)NC(=O)N)C(=O)N)F [TPCA-1] + N=C(N)NC(=N)NCCc1ccccc1 [Phenformin] (partner 250 µM)
Method in brief: as §1

Cell Line	relative viability ([1]; first compound 0.2 µM)	relative viability ([1]; first compound 0.6325 µM)	relative viability ([1]; first compound 2 µM)	relative viability ([1]; first compound 6.325 µM)	relative viability ([1]; first compound 20 µM)	relative viability ([2]; first compound 0.2 µM)	relative viability ([2]; first compound 0.6325 µM)	relative viability ([2]; first compound 2 µM)	relative viability ([2]; first compound 6.325 µM)	relative viability ([2]; first compound 20 µM)	relative viability (TPCA-1 + Linsitinib; first compound 0.04 µM)	relative viability (TPCA-1 + Linsitinib; first compound 0.1265 µM)	relative viability (TPCA-1 + Linsitinib; first compound 0.4 µM)	relative viability (TPCA-1 + Linsitinib; first compound 1.265 µM)	relative viability (TPCA-1 + Linsitinib; first compound 4 µM)	relative viability (TPCA-1 + Phenformin; first compound 0.04 µM)	relative viability (TPCA-1 + Phenformin; first compound 0.1265 µM)	relative viability (TPCA-1 + Phenformin; first compound 0.4 µM)	relative viability (TPCA-1 + Phenformin; first compound 1.265 µM)	relative viability (TPCA-1 + Phenformin; first compound 4 µM)
SK-LU-1	0.329	0.385	0.419	0.271	0.36	0.427	0.34	0.541	0.443	0.514	1.19	1.07	1.11	0.681	0.425	0.719	0.461	0.662	0.44	0.238
LOU-NH91	0.755	0.705	0.657	0.604	0.596	0.943	0.899	0.915	0.872	0.928	1.02	0.841	1	0.993	0.859	0.712	0.677	0.73	0.599	0.664
LXF-289	0.196	0.207	0.193	0.151	0.178	1.06	1.07	1.06	0.936	1.02	0.94	0.969	0.932	0.962	0.793	0.551	0.489	0.532	0.447	0.308
NCI-H1299	–	–	–	–	–	1.01	0.969	0.953	0.817	0.962	1.13	0.904	0.942	0.777	1.01	–	–	–	–	–
HARA	0.121	0.123	0.116	0.101	0.0981	1.11	0.862	0.944	0.716	0.83	0.916	0.856	1.05	0.924	0.804	0.476	0.45	0.469	0.484	0.162
LU99A	0.287	0.284	0.266	0.267	0.301	0.225	0.255	0.279	0.222	0.234	0.486	0.45	0.513	0.341	0.306	0.989	0.82	0.835	0.646	0.603
201T	0.959	0.968	1	0.897	0.911	0.866	0.856	0.858	0.775	0.84	1.03	0.982	1.09	1.09	0.835	0.484	0.454	0.425	0.378	0.426
HCC-827	0.414	0.405	0.441	0.44	0.503	0.589	0.582	0.72	0.646	0.597	0.934	0.889	0.935	0.932	0.806	0.384	0.385	0.404	0.367	0.353
NCI-H1666	0.574	0.658	0.609	0.538	0.538	0.76	0.769	0.77	0.69	0.708	0.756	0.688	0.785	0.993	0.723	0.547	0.569	0.533	0.529	0.581
NCI-H1915	0.428	0.456	0.447	0.422	0.446	0.264	0.247	0.307	0.241	0.26	1.16	1.12	1.15	1.04	1.03	0.403	0.362	0.385	0.321	0.289
NCI-H2009	0.764	0.814	0.752	0.657	0.81	0.71	0.683	0.701	–	0.707	1.25	1.18	1.11	1.19	1.06	0.542	0.486	0.512	0.429	0.44
ChaGo-K-1	0.241	0.235	0.259	0.212	0.197	0.407	0.413	0.381	0.233	0.169	–	–	–	–	–	0.524	0.472	0.54	0.48	0.259
COR-L 105	0.337	0.33	0.316	–	0.407	0.753	0.757	0.646	0.434	0.618	0.959	1.03	0.801	0.862	0.781	0.471	0.406	0.448	0.368	0.323
NCI-H2170	0.689	0.716	0.73	0.563	0.728	0.619	0.645	0.595	0.422	0.536	–	–	–	–	–	0.478	0.401	0.424	0.402	0.362
A549	–	–	–	–	–	0.352	0.283	0.642	0.286	0.354	0.627	0.567	0.638	0.469	0.314	0.206	0.162	0.151	0.141	0.0882
SW 1573	0.175	0.13	0.176	0.158	0.139	0.394	0.455	0.556	0.435	0.248	1.03	0.881	0.807	0.802	0.643	0.341	0.323	0.411	0.296	0.331
NCI-H1975	0.71	0.742	–	0.678	0.699	0.757	0.795	0.855	0.538	0.782	0.93	0.916	0.971	0.918	0.946	0.445	0.392	0.435	0.405	0.312
Calu-6	–	–	–	–	–	0.548	0.595	0.55	0.586	0.524	1.15	0.941	0.962	0.847	0.68	–	–	–	–	–
NCI-H1648	0.598	0.559	0.467	–	0.4	0.855	0.81	1.03	0.792	0.814	–	–	–	–	–	–	–	–	–	–

Cell Line	relative viability ([1]; first compound 0.2 µM)	relative viability ([1]; first compound 0.6325 µM)	relative viability ([1]; first compound 2 µM)	relative viability ([1]; first compound 6.325 µM)	relative viability ([1]; first compound 20 µM)	relative viability ([2]; first compound 0.2 µM)	relative viability ([2]; first compound 0.6325 µM)	relative viability ([2]; first compound 2 µM)	relative viability ([2]; first compound 6.325 µM)	relative viability ([2]; first compound 20 µM)	relative viability (TPCA-1 + Linsitinib; first compound 0.04 µM)	relative viability (TPCA-1 + Linsitinib; first compound 0.1265 µM)	relative viability (TPCA-1 + Linsitinib; first compound 0.4 µM)	relative viability (TPCA-1 + Linsitinib; first compound 1.265 µM)	relative viability (TPCA-1 + Linsitinib; first compound 4 µM)	relative viability (TPCA-1 + Phenformin; first compound 0.04 µM)	relative viability (TPCA-1 + Phenformin; first compound 0.1265 µM)	relative viability (TPCA-1 + Phenformin; first compound 0.4 µM)	relative viability (TPCA-1 + Phenformin; first compound 1.265 µM)	relative viability (TPCA-1 + Phenformin; first compound 4 µM)
NCI-H1623	0.479	0.437	0.423	0.394	0.489	–	–	–	–	–	–	–	–	–	–	0.592	0.522	0.62	0.574	0.4
NCI-H3122	0.393	0.498	0.396	0.391	0.442	0.655	0.645	0.648	0.537	0.578	1.11	0.983	0.981	0.985	1.02	0.383	0.401	0.409	0.374	0.404
NCI-H2347	0.666	0.574	0.596	–	0.738	0.623	0.581	0.593	0.521	0.63	1.14	1.02	0.899	0.931	0.903	0.652	0.331	0.451	0.262	0.264
HCC-44	1.04	0.609	0.928	0.837	0.923	0.959	0.985	0.907	0.896	0.989	0.608	0.63	0.705	0.656	0.666	0.195	0.178	0.209	–	0.153
HCC-78	0.423	0.593	0.45	0.37	0.454	0.794	0.872	0.906	0.87	0.81	0.555	0.429	0.506	0.413	0.399	0.724	0.732	0.657	0.693	0.436
COR-L23	0.223	0.203	0.197	0.185	0.193	0.408	0.367	0.323	0.388	0.325	1.01	0.771	0.975	0.821	0.565	0.483	0.47	0.436	0.415	0.328
NCI-H1993	0.567	0.556	0.594	0.559	0.506	1.1	0.969	1.17	0.958	0.85	0.711	–	0.748	0.686	0.622	0.425	0.536	0.55	0.421	0.485
NCI-H2405	0.775	0.774	0.862	0.72	0.76	0.905	0.844	1.04	0.789	0.867	1.05	0.806	0.988	–	0.914	0.459	0.37	0.471	0.166	0.38
NCI-H2126	0.888	0.831	0.878	0.814	0.798	0.951	0.926	0.883	0.882	0.85	0.752	0.657	0.709	0.724	0.595	0.561	0.499	0.53	0.537	0.44
NCI-H1944	0.282	0.248	0.259	0.241	0.236	0.435	0.385	0.392	–	0.41	1.24	1.13	1.2	1.13	0.987	0.238	0.202	0.217	0.176	0.189
NCI-H2342	0.521	0.567	0.561	0.443	0.459	0.392	0.464	0.454	0.419	0.435	–	–	–	–	–	0.612	0.538	0.574	0.504	0.47
NCI-H1792	–	–	–	–	–	0.499	0.492	0.627	0.279	0.474	0.574	0.467	0.561	0.47	0.283	0.326	0.246	0.322	0.217	0.158
NCI-H1563	–	–	–	–	–	–	–	–	–	–	1.2	1.23	1.17	1.12	1.16	0.712	0.653	0.712	0.603	0.667
NCI-H522	0.6	0.506	0.523	0.549	0.583	0.626	0.643	0.657	0.625	0.742	–	–	–	–	–	0.67	0.611	0.504	0.776	0.621
SW 900	0.514	0.567	0.558	0.618	0.584	0.752	0.839	0.87	0.882	0.99	–	–	–	–	–	0.79	0.577	0.518	0.395	0.529
EBC-1	–	–	–	–	–	0.687	0.754	0.652	0.593	0.69	1.06	0.825	0.815	0.844	0.814	–	–	–	–	–
NCI-H1650	0.492	0.445	0.395	0.435	0.343	0.854	0.793	0.734	0.69	0.717	–	–	–	–	–	0.452	–	0.487	0.469	0.386
IA-LM	–	–	–	–	–	0.874	0.871	0.755	0.618	0.879	0.75	0.411	0.47	0.259	0.378	–	–	–	–	–
NCI-H1703	–	–	–	–	–	0.547	0.54	0.536	0.423	0.574	1.01	0.627	0.947	0.546	0.308	–	–	–	–	–
